Results on 22 compounds are retold here after ChEMBL document CHEMBL3400145, “Design and synthesis of piperazine derivatives as a novel class of γ-secretase modulators that selectively lower Aβ₄₂ production” (Bioorg Med Chem, 2015).

The source made the active and inactive calls. No cut-off for these calls is given here.

The test system of series [1] is neuronal. In words: Inhibition of amyloid beta40 production in rat neuronal cells assessed as maximal inhibition at 3 uM after 3 days by ELISA. The class given is cell-based.
Series [2] can be described thus: Metabolic stability in rat hepatic microsomes by LC/MS/MS analysis. Format: ADME, Liver, Microsome. Conditions: read-out: CLH.
The test system of series [3] is neuronal. Kind of series: Inhibition of amyloid beta40 production in rat neuronal cells assessed as inflection point after 3 days by ELISA. Format: cell-based.
The subject of series [4] is Brain. In words: Reduction in soluble amyloid beta42 in C57BL/6J mouse brain at 100 mg/kg, po after 3 hrs by ELISA relative to vehicle treated control. The class given is functional.
The subject of series [5] is Plasma. In words: Reduction in soluble amyloid beta42 in C57BL/6J mouse plasma at 100 mg/kg, po after 3 hrs by ELISA relative to vehicle treated control. The class given is functional.
Series [6] has as its target Amyloid-beta precursor protein (Homo sapiens) (UniProt P05067). In words: Inhibition of amyloid beta40 production in human IMR32 cell by ELISA. Format: functional, cell-based. The following applies: IMR-32.
Series [7] deals with Plasma. In words: Reduction in soluble amyloid beta40 in C57BL/6J mouse plasma at 100 mg/kg, po after 3 hrs by ELISA relative to vehicle treated control. The class given is functional.
Series [8] has as its system Mus musculus. In words: AUC in C57BL/6J mouse at 1 mg/kg, po cassette dosing. Format: ADME, organism-based, Plasma. On the set-up: dose 1 mg/kg, route oral. Conditions: in vivo.
The nature of series [9]: Mean residence time in C57BL/6J mouse at 1 mg/kg, po cassette dosing. The class given is ADME, organism-based. On the set-up: dose 1 mg/kg, route oral. Conditions: in vivo.
Series [10] is described as follows: Cmax in C57BL/6J mouse at 1 mg/kg, po cassette dosing. Format: ADME, organism-based. On the set-up: dose 1 mg/kg, route oral. Conditions: in vivo.
The next series has as its system IMR-32. In words: Inhibition of total amyloid beta production in human IMR32 cell by ELISA. Format: functional, cell-based.
In series [11] the test system is Mus musculus. Kind of series: Oral bioavailability in C57BL/6J mouse at 1 mg/kg cassette dosing. Conditions: in vivo. Format: ADME, organism-based.
Series [12] has as its system Brain. Kind of series: Reduction in soluble amyloid beta40 in C57BL/6J mouse brain at 100 mg/kg, po after 3 hrs by ELISA relative to vehicle treated control. The class given is functional.
In series [13] the target is Amyloid-beta precursor protein (Homo sapiens) (UniProt P05067). In words: Inhibition of amyloid beta42 production in human IMR32 cell by ELISA. The following applies: IMR-32. Format: functional, cell-based.
Series [14] can be described thus: Volume of distribution at steady state in C57BL/6J mouse at 0.1 mg/kg, iv cassette dosing. On the set-up: dose 0.1 mg/kg, route intravenous. Format: ADME, organism-based. The following applies: in vivo, read-out: Vdss.

Amyloid-beta precursor protein (Homo sapiens), sequence (P05067 whole entry): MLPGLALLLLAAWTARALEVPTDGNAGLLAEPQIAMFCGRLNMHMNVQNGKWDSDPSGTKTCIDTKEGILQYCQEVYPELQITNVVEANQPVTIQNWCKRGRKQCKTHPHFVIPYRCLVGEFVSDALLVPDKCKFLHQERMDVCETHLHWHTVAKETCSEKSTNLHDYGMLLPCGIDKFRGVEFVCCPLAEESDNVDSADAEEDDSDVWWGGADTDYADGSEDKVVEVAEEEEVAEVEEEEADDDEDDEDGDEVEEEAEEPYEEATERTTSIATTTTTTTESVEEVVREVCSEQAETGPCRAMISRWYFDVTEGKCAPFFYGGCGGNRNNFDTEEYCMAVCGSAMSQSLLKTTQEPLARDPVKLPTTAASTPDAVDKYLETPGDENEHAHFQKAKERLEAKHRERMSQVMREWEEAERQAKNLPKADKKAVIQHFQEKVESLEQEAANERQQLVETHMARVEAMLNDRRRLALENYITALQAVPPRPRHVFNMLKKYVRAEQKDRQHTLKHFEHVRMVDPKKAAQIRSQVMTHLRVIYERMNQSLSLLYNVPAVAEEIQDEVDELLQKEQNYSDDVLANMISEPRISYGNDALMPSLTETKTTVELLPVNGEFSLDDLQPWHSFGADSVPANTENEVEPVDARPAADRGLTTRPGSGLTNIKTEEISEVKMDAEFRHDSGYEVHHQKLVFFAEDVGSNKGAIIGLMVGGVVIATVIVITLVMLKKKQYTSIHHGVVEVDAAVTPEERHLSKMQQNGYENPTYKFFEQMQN

In the case of `COc1cc(N2CCN(C(=O)Cn3cnc4cccc(C(F)(F)F)c43)CC2)ccc1-c1cnc(C)o1`, the inhibition in the series on neuronal [1] turned out to be 46%. In addition, the microsomal CLint in series [2] was found to be 7 µL/min/mg. Further, the Activity with neuronal [3] was 420 nM.
Taken in the same sequence, the figures for `COc1cc(N2CCN(C(=O)CN3Cc4ccccc4C3)CC2)ccc1-c1cnc(C)o1` were 48%, 42 µL/min/mg and 620 nM.
Taken in the same sequence, the figures for `COc1cc(N2CCN(C(=O)CN3CCc4ccccc43)CC2)ccc1-c1cnc(C)o1` were 52%, 160 µL/min/mg and 290 nM.
Taken in the same sequence, the figures for `COc1cc(N2CCN(C(=O)Cn3ccc4ccccc43)CC2)ccc1-c1cnc(C)o1` were 50%, 140 µL/min/mg and 180 nM.
Turning to `COc1cc(C2CCN(C(=O)N[C@@H](C)c3cccc4ccccc34)CC2)ccc1-c1cnc(C)o1`, in the series with neuronal [1], the inhibition is 61%. In series [2], the microsomal CLint was 170 µL/min/mg. Also, the Activity in the series with neuronal [3] worked out at 260 nM.
Regarding `COc1cc(N2CCN(C(=O)Cn3nnc4ccccc43)CC2)ccc1-c1cnc(C)o1`, in the series with neuronal [1], the inhibition is 47%. For the same compound, the microsomal CLint in series [2] came to 27 µL/min/mg. In addition, the Activity in the series on neuronal [3] was determined as 210 nM.
For `COc1cc(N2CCN(C(=O)Cn3cnc4ccc(C(F)(F)F)cc43)C[C@@H]2C)ccc1-c1cnc(C)o1` the same measures were 46%, 50 µL/min/mg and 30 nM.
Taken in the same sequence, the figures for `COc1cc(N2CCN(C(=O)N[C@@H](C)c3cccc4ccccc34)C[C@H]2C)ccc1-c1cnc(C)o1` were 65%, 150 µL/min/mg and 56 nM.
As to `COc1cc(N2CCN(C(=O)NCc3cccc4ccccc34)CC2)ccc1-c1cnc(C)o1`, the inhibition in the series on neuronal [1] stood at 59%. The microsomal CLint in [2] was 160 µL/min/mg. Also, the Activity in the series on neuronal [3] was determined as 50 nM.
Taken in the same sequence, the figures for `COc1cc(N2CCN(C(=O)Cn3cnc4cc(C(F)(F)F)ccc43)CC2)ccc1-c1cnc(C)o1` were 61%, 66 µL/min/mg and 50 nM.
For `COc1cc(N2CCN(C(=O)N[C@@H](C)c3cccc4ccccc34)CC2)ccc1-n1cnc(C)n1` the same measures were 68%, 110 µL/min/mg and 170 nM.
Taken in the same sequence, the figures for `COc1cc(N2CCN(C(=O)N[C@@H](C)c3cccc4ccccc34)CC2)ccc1-c1cnn(C)c1` were 63%, 150 µL/min/mg and 180 nM.
Consider `COc1cc(N2CCN(C(=O)N[C@@H](C)c3cccc4ccccc34)CC2)ccc1-n1cnc(C)c1`, for which the inhibition with neuronal [1] was found to be 57%. Besides, in series [2], the microsomal CLint stood at 150 µL/min/mg. The Activity in the series with neuronal [3] amounted to 56 nM. In addition, the inhibition in vivo at 100 mg/kg in the series with Brain [4] is 4%; in the series on Plasma [5], 16%.
For the compound `COc1cc(N2CCN(C(=O)Cn3cnc4cc(C(F)(F)F)ccc43)C[C@@H]2C)ccc1-c1cnc(C)o1`, the figures for the inhibition (in the series on neuronal [1]; in series [13]) were 60% and “Dose-dependent effect”, respectively. Besides, the inhibition result (in series [6]; in the series on IMR-32) was “inactive” in each case. Also, the % of control at 100 mg/kg turned out to be 106% in the series with Plasma [7] and 105% in the series with Brain [12]. The compound also came in with an AUC with Mus musculus [8] of 3930 ng·h/mL. The compound further gave an MRT in [9] of 3.26 h. The peak level in [10] (Cmax) was 773 ng/mL. Besides, the F in the series on Mus musculus [11] turned out to be 46%. Also, the microsomal CLint in series [2] worked out at 67 µL/min/mg. For the same compound, the Vd in series [14] is 0.36 L/kg. Moreover, in the series on neuronal [3], the Activity stood at 21 nM. The inhibition in vivo at 100 mg/kg in the series on Brain [4] came to 41%; with Plasma [5] it was 36%.
`COc1cc(N2CCN(C(=O)Cn3cnc4ccc(C(F)(F)F)cc43)CC2)ccc1-c1cnc(C)o1`: the inhibition in the series on neuronal [1] stood at 50%. Further, in [2], the microsomal CLint was found to be 23 µL/min/mg. For the same compound, the Activity with neuronal [3] was found to be 65 nM.
For `COc1cc(N2CCN(C(=O)N[C@@H](C)c3cccc4ccccc34)C[C@@H]2C)ccc1-c1cnc(C)o1` the same measures were 64%, 150 µL/min/mg and 21 nM.
For `COc1cc(N2CCN(C(=O)Cn3cnc4c(C(F)(F)F)cccc43)CC2)ccc1-c1cnc(C)o1` the same measures were 53%, 12 µL/min/mg and 110 nM.
Taken in the same sequence, the figures for `COc1cc(N2CCN(C(=O)Cn3ncc4ccccc43)CC2)ccc1-c1cnc(C)o1` were 49%, 77 µL/min/mg and 170 nM.
Consider `COc1cc(N2CCN(C(=O)Cn3cnc4ccccc43)CC2)ccc1-c1cnc(C)o1`, for which the inhibition in the series with neuronal [1] is 71%. Moreover, in series [2], the microsomal CLint is 22 µL/min/mg. In addition, in the series on neuronal [3], the Activity turned out to be 93 nM.
Taken in the same sequence, the figures for `COc1cc(N2CCN(C(=O)N[C@@H](C)c3cccc4ccccc34)CC2)ccc1-c1cnc(C)o1` were 67%, 130 µL/min/mg and 34 nM.
With `COc1cc(N2CCCN(C(=O)N[C@@H](C)c3cccc4ccccc34)CC2)ccc1-c1cnc(C)o1`, the inhibition in the series on neuronal [1] was determined as 57%. Besides, the microsomal CLint in series [2] amounted to 240 µL/min/mg. In the series on neuronal [3], the Activity was 38 nM.
Taken in the same sequence, the figures for `COc1cc(N2CCN(C(=O)N[C@@H](C)c3cccc4ccccc34)CC2)ccc1-n1cc(C)nn1` were 47%, 230 µL/min/mg and 450 nM.
